Data as given in patent US7683097B2, “Topoisomerase inhibitors” (Propharmacon Inc., priority 2004, dated 2010).

Columns and labels:
HL60-MX1 (MDR) = test: Cell proliferation assay, Leukemia HL60-MX1 (MDR); assay type: cell-based; settings: read-out: GI50 or IC50, Leukemia HL60-MX1 (MDR)
Protocol: (§1) The compounds listed in Table III were prepared using the procedures outlined in the above Examples.

OVCAR-3 = test: Cell proliferation assay, Ovarian Cancer OVCAR-3; assay type: cell-based; settings: Homo sapiens, read-out: GI50 or IC50, Ovarian Cancer OVCAR-3
Protocol: (§2) The compounds listed in Table IV were prepared using the procedures outlined in the above Examples.

H69-AR (MDR) = test: Cell proliferation assay, SC Lung Cancer H69-AR (MDR); assay type: cell-based; settings: Homo sapiens, H69AR; read-out: GI50 or IC50, SC Lung Cancer H69-AR (MDR)
Protocol: as §1

PC-3 = test: Cell proliferation assay, Prostate Cancer PC-3; assay type: cell-based; settings: Homo sapiens, read-out: GI50 or IC50, Prostate Cancer PC-3
Protocol: as §2

HL-60 = test: Cell proliferation assay, Leukemia HL-60; assay type: cell-based; settings: Homo sapiens, read-out: GI50 or IC50, Leukemia HL-60
Protocol: as §1

MCF-7 = test: Cell proliferation assay (panel), Breast Cancer MCF-7; assay type: cell-based; settings: Homo sapiens, MCF7; read-out: GI50 or IC50, Breast Cancer MCF-7
Protocol: as §2

SK-MEL-2 = test: Cell proliferation assay, Melanoma SK-MEL-2; assay type: cell-based; settings: Homo sapiens, read-out: GI50 or IC50, Melanoma SK-MEL-2
Protocol: as §2

SF-268 = test: Cell proliferation assay, CNS Cancer SF-268; assay type: cell-based; settings: Homo sapiens, read-out: GI50 or IC50, CNS Cancer SF-268
Protocol: as §1

UO-31 = test: Cell proliferation assay, Renal Cancer UO-31; assay type: cell-based; settings: Homo sapiens, read-out: GI50 or IC50, Renal Cancer UO-31
Protocol: as §2

HCT-15 = test: Cell proliferation assay, Colon Cancer HCT-15; assay type: cell-based; settings: Homo sapiens, read-out: GI50 or IC50, Colon Cancer HCT-15
Protocol: as §1

MES-SA/Dx5 = test: Cell proliferation assay, Uterine MES-SA/Dx5; assay type: cell-based; settings: Homo sapiens, read-out: GI50 or IC50, Uterine MES-SA/Dx5
Protocol: as §2

NCI-H460 [1] = test: Cell proliferation assay, NSC Lung Cancer NCI-H460; assay type: cell-based; settings: Homo sapiens, read-out: GI50 or IC50, NSC Lung Cancer NCI-H460
Protocol: as §1

NCI-ADR = test: Cell proliferation assay, Breast Cancer NCI-ADR; assay type: cell-based; settings: Homo sapiens, NCI/ADR-RES; read-out: GI50 or IC50, Breast Cancer NCI-ADR
Protocol: as §2

calf thymus DNA = test: DNA-intercalator displacement assay (EtBr displacement); assay type: binding; settings: FIG. 4
Source text: The curve labeled “Hoechst” corresponds to Hoechst 33258. Controls are: 1) no EtBr (min. fluorescence) and 2) no compound (max. fluorescence).
(§3) Gel retardation assays were done on 320 and other biaryl/terphenyl acid compounds, to test for electrophoretic mobility shifts due to the presence of a substance that directly binds DNA.

NCI-H460 [2] = test: NCI-H460 human xenograft study in nude mice; settings: i.v., 320 25 mg/Kg days 1-5, etoposide 35 mg/Kg days 7, 10, 14; for anti-tumor activity with respect to final tumor volume: doxorubicin 5 mg/Kg days 7 and 14, day 28
Protocol: An acute toxicological study was performed for 320 prior to the xenograft study. Two groups (n=3) of female CD-1 mice were injected intraperitoneally (i.p.) with either 10 or 100 mg/Kg of 320 dissolved in 5% DMSO, 10% PEG400. […] A second MTD study was done by the intravascular (i.v.) route using 4 groups of CD-1 mice for the following: vehicle, 3, 10 and 30 mg/Kg injections which were to be given daily for days 1-5 and study duration of two weeks, at which point survivors would be euthanised.
All injections were by the i.v. route; groups were 5 NCR nu/nu mice. The cell line NCI-H460 was used to produce the tumors that appeared by day 7. […] All survivors to day 28 were euthanised at this time and tumor volumes measured.

pBR322 plasmid = test: Gel retardation assay (electrophoretic mobility shift); assay type: binding
Source text: as §3

human Topo IIα = target: T1, human Topo IIα (Homo sapiens, UniProt P11388); test: Topo IIα decatenation inhibition assay (kDNA, agarose gel); assay type: biochemical; settings: sample gel, FIG. 2; kDNA substrate
T1 construct: purchased Topogen Inc. Columbus, Ohio
T1 sequence (P11388 whole entry): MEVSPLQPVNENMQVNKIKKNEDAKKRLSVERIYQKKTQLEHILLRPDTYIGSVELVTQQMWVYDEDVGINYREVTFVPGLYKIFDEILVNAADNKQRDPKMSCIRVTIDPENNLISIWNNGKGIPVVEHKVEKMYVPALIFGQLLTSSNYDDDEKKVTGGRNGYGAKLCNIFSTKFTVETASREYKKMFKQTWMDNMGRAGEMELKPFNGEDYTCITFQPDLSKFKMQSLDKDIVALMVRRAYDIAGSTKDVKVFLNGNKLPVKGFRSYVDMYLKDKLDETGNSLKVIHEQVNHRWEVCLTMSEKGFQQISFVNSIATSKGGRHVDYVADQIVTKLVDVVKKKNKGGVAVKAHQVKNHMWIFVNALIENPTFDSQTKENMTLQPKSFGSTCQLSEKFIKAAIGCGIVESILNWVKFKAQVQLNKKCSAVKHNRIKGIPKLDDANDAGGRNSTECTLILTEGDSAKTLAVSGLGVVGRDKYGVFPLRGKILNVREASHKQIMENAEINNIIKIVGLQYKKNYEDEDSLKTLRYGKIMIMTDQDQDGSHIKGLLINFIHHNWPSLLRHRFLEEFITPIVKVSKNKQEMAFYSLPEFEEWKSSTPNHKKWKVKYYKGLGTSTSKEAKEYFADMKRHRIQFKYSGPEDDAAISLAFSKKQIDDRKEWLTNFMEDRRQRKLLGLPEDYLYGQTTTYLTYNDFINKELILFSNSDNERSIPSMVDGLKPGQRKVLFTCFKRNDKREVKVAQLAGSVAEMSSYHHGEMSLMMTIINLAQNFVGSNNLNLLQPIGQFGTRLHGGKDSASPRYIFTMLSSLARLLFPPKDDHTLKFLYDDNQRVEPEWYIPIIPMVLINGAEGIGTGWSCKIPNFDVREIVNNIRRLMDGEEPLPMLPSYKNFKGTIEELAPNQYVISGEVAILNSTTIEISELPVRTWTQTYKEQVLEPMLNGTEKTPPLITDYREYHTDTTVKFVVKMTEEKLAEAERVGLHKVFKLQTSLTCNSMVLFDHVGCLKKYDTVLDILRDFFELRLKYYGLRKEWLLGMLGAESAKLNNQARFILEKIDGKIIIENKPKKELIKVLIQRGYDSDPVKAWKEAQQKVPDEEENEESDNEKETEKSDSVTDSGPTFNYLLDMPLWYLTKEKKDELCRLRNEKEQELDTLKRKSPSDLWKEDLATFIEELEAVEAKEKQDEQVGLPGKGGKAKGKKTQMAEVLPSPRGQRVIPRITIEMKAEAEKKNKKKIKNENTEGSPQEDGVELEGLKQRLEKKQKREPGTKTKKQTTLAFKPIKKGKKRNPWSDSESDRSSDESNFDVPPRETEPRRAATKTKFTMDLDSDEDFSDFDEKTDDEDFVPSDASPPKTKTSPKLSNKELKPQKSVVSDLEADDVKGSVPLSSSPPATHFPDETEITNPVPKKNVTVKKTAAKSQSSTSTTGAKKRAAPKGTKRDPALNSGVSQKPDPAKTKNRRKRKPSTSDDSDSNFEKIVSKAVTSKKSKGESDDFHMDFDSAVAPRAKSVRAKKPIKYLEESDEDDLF
Source text: When present, high molecular weight kDNA has not migrated from the loading well.
The enzyme assays used for determining Topo IIα inhibition was either the ATP-dependent decatenation of high molecular weight kDNA (kinetoplast) as substrate or the relaxation of supercoiled pBR322 each incorporating human Topo IIα (Topogen Inc. Columbus, Ohio) and following literature protocols (Fortune, J. M. et al., J. Biol. Chem., 273(28), 17643-50 1998; Muller, M. T. et al., Biochemistry, 27(22), 8369-79, 1988). The 2.5 Kd mini-circle product derived from the catenated substrate is resolved on an agarose gel with ethidium bromide staining after electrophoresis. Likewise, the relaxed form of pBR322 is resolved from the faster moving supercoiled form during electrophoresis.

MCF-7/ADR = test: Cell proliferation assay, MDR line MCF-7/ADR; assay type: cell-based, human; settings: 48 hrs exposure; less potent in MCF-7/ADR
Source text: The MCF-7 cell line, the MDR cell line, and the MCF-7/ADR cell line were used. Alamar Blue™ was used to quantitate cell viability.

[3] = target: TopoIIα-DNA covalent complex (Homo sapiens, UniProt P11388); test: Topo IIα DNA covalent complex stabilization assay; assay type: biochemical; settings: SDS trapping, proteinase K, FIG. 5
Chain of TopoIIα-DNA covalent complex (P11388 whole entry, one chain of several): as the sequence (P11388 whole entry) above
Source text: To determine if the compound 320 stabilizes the TopoIIα-DNA covalent complex, cleavage intermediates are trapped by the addition of SDS to the reaction (Wilson Byl, J. A., et al., Biochemistry, 40, 712-718, 2001). After proteinase K digestion to digest any covalently bound Topo, the products are electrophoresed and stained with EtBr. The appearance of an additional band that is a linear form of the 2.5 Kb minicircle product is indicative of a compound's ability to stabilize the covalent complex.

Row | Compound | IC50 (HL60-MX1 (MDR)) [nM] | IC50 (OVCAR-3) [nM] | IC50 (H69-AR (MDR)) [nM] | IC50 (PC-3) [nM] | IC50 (HL-60) [nM] | IC50 (MCF-7) [nM] | IC50 (SK-MEL-2) [nM] | IC50 (SF-268) [nM] | IC50 (UO-31) [nM] | IC50 (HCT-15) [nM] | IC50 (MES-SA/Dx5) [nM] | IC50 (NCI-H460 [1]) [nM] | IC50 (NCI-ADR) [nM] | also measured
1 | O=C(Nc1cnccn1)c1ccc(Cl)c(-c2ccc(-c3ccccc3)cc2)c1 [Compound 5, 6″-Chloro-[1,1′;4′,1″]terphenyl-3″-carboxylic acid pyrazin-2-ylamide] | ≤ 1000 | ≤ 1000 | ≤ 1000 | ≤ 1000 | ≤ 1000 | ≤ 1000 | 1000 to 25000 | ≤ 1000 | ≤ 1000 | ≤ 1000 | ≤ 1000 | ≤ 1000 |  | 
2 | COc1ccc(NC(=O)c2ccc(Cl)c(-c3ccc(-c4ccccc4)cc3)c2)cn1 [Compound 8, 6-Chloro-[1,1′;4′,1″]terphenyl-3-carboxylic acid (6-methoxy-pyridin-3-yl)-amide] | 1000 to 25000 | ≤ 1000 | ≤ 1000 | ≤ 1000 | ≤ 1000 | > 25000 | 1000 to 25000 | ≤ 1000 | 1000 to 25000 | ≤ 1000 | ≤ 1000 | ≤ 1000 | ≤ 1000 | 
3 | O=C(NC1=NCCS1)c1ccc(Cl)c(-c2ccc(-c3ccccc3)cc2)c1 [Compound 33, 6″-Chloro-[1,1′;4′,1″]terphenyl-3″-carboxylic acid (4,5-dihydro-thiazol-2-yl)-amide] |  | 1000 to 25000 |  | 1000 to 25000 | 1000 to 25000 | 1000 to 25000 | 1000 to 25000 | 1000 to 25000 | 1000 to 25000 | > 25000 |  | 1000 to 25000 |  | 
4 | O=C(Nc1ccncn1)c1ccc(Cl)c(-c2ccc(-c3ccccc3)cc2)c1 [Compound 37, 6-Chloro-[1,1′;4′,1″]terphenyl-3-carboxylic acid pyrimidin-4-ylamide] | ≤ 1000 | > 25000 | ≤ 1000 | 1000 to 25000 | 1000 to 25000 | 1000 to 25000 | > 25000 | 1000 to 25000 | 1000 to 25000 | 1000 to 25000 | ≤ 1000 | 1000 to 25000 | ≤ 1000 | 
5 | O=C(NC1CCNCC1)c1ccc(Cl)c(-c2ccc(-c3ccccc3)cc2)c1 [Compound 43, 6-Chloro-[1,1′;4′,1″]terphenyl-3-carboxylic acid piperidin-4-ylamide] | ≤ 1000 | 1000 to 25000 | ≤ 1000 | 1000 to 25000 | 1000 to 25000 | 1000 to 25000 | 1000 to 25000 | 1000 to 25000 | 1000 to 25000 | 1000 to 25000 | ≤ 1000 | 1000 to 25000 | ≤ 1000 | 
6 | CN(C)CCN(C(=O)c1ccc(Cl)c(-c2ccc(-c3ccccc3)cc2)c1)c1cccnc1 [Compound 52, 6-Chloro-[1,1′;4′,1″]terphenyl-3-carboxylic acid (2-dimethylamino-ethyl)-pyridin-3-yl-amide] | 1000 to 25000 | 1000 to 25000 | 1000 to 25000 | 1000 to 25000 | 1000 to 25000 | 1000 to 25000 | 1000 to 25000 | 1000 to 25000 | 1000 to 25000 | 1000 to 25000 | ≤ 1000 | 1000 to 25000 | 1000 to 25000 | 
7 | O=C(NCC1CCCO1)c1ccc(Cl)c(-c2ccc(-c3ccccc3)cc2)c1 (stereo not drawn) [Compound 58, 6-Chloro-[1,1′;4′,1″]terphenyl-3-carboxylic acid (tetrahydro-furan-2-ylmethyl)-amide] | 1000 to 25000 | 1000 to 25000 | ≤ 1000 | 1000 to 25000 | 1000 to 25000 | 1000 to 25000 | 1000 to 25000 | 1000 to 25000 | 1000 to 25000 | 1000 to 25000 | ≤ 1000 | 1000 to 25000 | ≤ 1000 | 
8 | O=C(O)C1c2ccccc2CCN1C(=O)c1ccc(Cl)c(-c2ccc(-c3ccccc3)cc2)c1 (stereo not drawn) [Compound 337, 2-(6″-Chloro-[1,1′;4′,1″]terphenyl-3″-carbonyl)-1,2,3,4-tetrahydro-isoquinoline-1-carboxylic acid] |  |  |  |  |  |  |  |  |  |  |  |  |  | displacement of EtBr (intercalator) from DNA (calf thymus DNA): lack of intercalator displacement
9 | CN1CCN(c2ccc3[nH]c(-c4ccc5[nH]c(-c6ccc(O)cc6)nc5c4)nc3c2)CC1 [Hoechst 33258] |  |  |  |  |  |  |  |  |  |  |  |  |  | IC50 of EtBr displacement (calf thymus DNA): low μM; displacement of EtBr (intercalator) from DNA (calf thymus DNA): clearly demonstrates displacement of EtBr
10 | COc1cccc2c1C(=O)c1c(O)c3c(c(O)c1C2=O)C[C@@](O)(C(=O)CO)C[C@@H]3O[C@H]1C[C@H](N)[C@H](O)[C@H](C)O1 [doxorubicin, reference compound] |  |  |  |  |  |  |  |  |  |  |  |  |  | anti-tumor activity with respect to final tumor volume (NCI-H460 [2]): least efficacy; mobility shift of pBR322 plasmid on gels (pBR322 plasmid): Mobility shifts were seen; inhibition of Topo IIα decatenation (human Topo IIα): partial inhibition; shift in potency, resistant line MCF-7/ADR versus parent line MCF-7 (MCF-7/ADR): 100 fold
11 | COc1cc([C@@H]2c3cc4c(cc3[C@@H](O[C@@H]3O[C@@H]5CO[C@@H](C)O[C@H]5[C@H](O)[C@H]3O)[C@H]3COC(=O)[C@H]23)OCO4)cc(OC)c1O [etoposide] |  |  |  |  |  |  |  |  |  |  |  |  |  | initial tumor growth delay (NCI-H460 [2]): greatest initial growth delay; anti-tumor activity with respect to final tumor volume (NCI-H460 [2]): greatest anti-tumor activity; stabilization of the TopoIIα-DNA covalent complex (linear form of minicircle) [3]: the linear form is present
